Structures can show the parent of a compound that is named as a salt.

One series in a line: in vitro. Particulars: rat, gh3-tre-luc cells, AC50 (uM) modified / 1000.
For the compound `C=C(C)CCCC(C)CCO` (centres unmarked) [Rhodinol], the CC50 at 24 h was more than 90 µM.

In turn, `CCCC(=O)OC[C@@H](OC(=O)CCC)[C@@H](OC(=O)CCC)[C@H](Cn1c2nc(=O)[nH]c(=O)c-2nc2cc(C)c(C)cc21)OC(=O)CCC` [Riboflavin tetrabutyrate] had a CC50 at 24 h of more than 50 µM.

For the compound `Cc1cc2nc3c(=O)[nH]c(=O)nc-3n(C[C@H](O)[C@H](O)[C@H](O)CO)c2cc1C` [Riboflavin], the CC50 at 24 h is more than 90 µM.

With `NC[C@H]1O[C@H](O[C@H]2[C@H](O[C@@H]3O[C@H](CO)[C@@H](O)[C@H]3O)[C@@H](O)[C@H](N)C[C@@H]2N)[C@H](N)[C@@H](O)[C@@H]1O` [Ribostamycin sulfate], the CC50 at 24 h was more than 20 µM.

`CO[C@H]1/C=C/O[C@@]2(C)Oc3c(C)c(O)c4c(O)c(cc(O)c4c3C2=O)NC(=O)/C(C)=C\C=C\[C@H](C)[C@H](O)[C@@H](C)[C@@H](O)[C@@H](C)[C@H](OC(C)=O)[C@@H]1C` [Rifamycin SV sodium salt] gave a CC50 at 24 h of 50.2 µM.

With `CO[C@H]1/C=C/O[C@@]2(C)Oc3c(C)c(O)c4c(O)c(c(/C=N/N5CCN(C6CCCC6)CC5)c(O)c4c3C2=O)NC(=O)/C(C)=C\C=C\[C@H](C)[C@H](O)[C@@H](C)[C@@H](O)[C@@H](C)[C@H](OC(C)=O)[C@@H]1C` [Rifapentine], half-maximal cytotoxicity (CC50 at 24 h) was put at 22.8 µM.

On to `CO[C@H]1/C=C/O[C@@]2(C)Oc3c(C)c(O)c4c(O)c(c5c(nc6cc(C)ccn65)c4c3C2=O)NC(=O)/C(C)=C\C=C\[C@H](C)[C@H](O)[C@@H](C)[C@@H](O)[C@@H](C)[C@H](OC(C)=O)[C@@H]1C` [Rifaximin], for which the CC50 at 24 h was more than 50 µM.

`C1COC(NC(C2CC2)C2CC2)=N1` [Rilmenidine] gave a CC50 at 24 h of more than 50 µM.

In turn, `CC(N)[C@]12C[C@H]3C[C@H](C[C@H](C3)C1)C2` (some centres unmarked) [Rimantadine hydrochloride] registered a CC50 at 24 h of more than 50 µM.

Consider `C[C@@H]1CN(CCCn2c3ccccc3c3ccccc32)C[C@H](C)N1` [Rimcazole dihydrochloride], for which the CC50 at 24 h was found to be 7.99 µM.

The compound `CCC(=O)[C@@]1(C)[C@H](C)C[C@H]2[C@@H]3CCC4=CC(=O)C=C[C@]4(C)[C@H]3[C@@H](O)C[C@@]21C` [Rimexolone] had a CC50 at 24 h of more than 20 µM.

For the compound `Cc1c(C(=O)NN2CCCCC2)nn(-c2ccc(Cl)cc2Cl)c1-c1ccc(Cl)cc1` [Rimonabant], the CC50 at 24 h is 13.9 µM. In other words, the double-digit micromolar range.

In the case of `CCCCCOc1ccc(C2SC(=O)NC2=O)cc1OCC` (centres unmarked) [Risarestat], the CC50 at 24 h is more than 50 µM.

Compound `O=P(O)(O)C(O)(Cc1cccnc1)P(=O)(O)O` [Risedronate sodium] gave a CC50 at 24 h of more than 50 µM.

`CCCOC(=O)c1ccc(N)cc1` [Risocaine] displayed a CC50 at 24 h of more than 50 µM.

As to `Cc1nc2n(c(=O)c1CCN1CCC(c3noc4cc(F)ccc34)CC1)CCCC2` [Risperidone], the CC50 at 24 h is more than 50 µM.

Turning to `Cc1nc2sccn2c(=O)c1CCN1CCC(=C(c2ccc(F)cc2)c2ccc(F)cc2)CC1` [Ritanserin], half-maximal cytotoxicity (CC50 at 24 h) was put at 28.7 µM.

For the compound `CCN(C)C(=O)Oc1cccc([C@H](C)N(C)C)c1` [Rivastigmine tartrate], the CC50 at 24 h was more than 50 µM.

`CN(C)CCc1c[nH]c2ccc(Cn3cncn3)cc12` [Rizatriptan] registered a CC50 at 24 h of more than 50 µM.

`Cc1cccc(C)c1N(CCCc1cccnc1)C(=O)C(C)N` (centres unmarked) [Ro 22-9194] registered a CC50 at 24 h of more than 50 µM.

Take `O=C(CCCCCCCCc1cccnc1)N1CCC(C=C(c2ccccc2)c2ccccc2)CC1` [Ro 23-7637]: the CC50 at 24 h turned out to be 26.1 µM.

For `N=C(N/N=C/c1ccc(Cl)cc1)N/N=C/c1ccc(Cl)cc1` [Robenidine], the CC50 at 24 h was determined as 46.1 µM.

With `C=CC[N+]1([C@H]2C[C@H]3[C@@H]4CC[C@H]5C[C@H](O)[C@@H](N6CCOCC6)C[C@]5(C)[C@H]4CC[C@]3(C)[C@H]2OC(C)=O)CCCC1` [Rocuronium bromide], the CC50 at 24 h is more than 50 µM.

With `CS(=O)(=O)c1ccc(C2=C(c3ccccc3)C(=O)OC2)cc1` [Rofecoxib], the CC50 at 24 h was more than 50 µM.

As for `O=C1CC[C@@H](C(=O)N[C@H]2C[C@@H]2c2ccccc2)N1` [Rolicyprine], the CC50 at 24 h is more than 50 µM.

`COc1ccc(C2CNC(=O)C2)cc1OC1CCCC1` (centres unmarked) [Rolipram] registered a CC50 at 24 h of more than 20 µM.

The compound `CN(C)[C@@H]1C(=O)C(C(=O)NCN2CCCC2)=C(O)[C@@]2(O)C(=O)C3=C(O)c4c(O)cccc4[C@@](C)(O)C3C[C@@H]12` (some centres unmarked) [Rolitetracycline hydrochloride] yielded a CC50 at 24 h of more than 50 µM.

Compound `CN(C)[C@@H]1C(O)=C(C(=O)NCN2CCCC2)C(=O)[C@@]2(O)C(O)=C3C(=O)c4c(O)cccc4[C@@](C)(O)[C@H]3C[C@@H]12` [Rolitetracycline] showed a CC50 at 24 h of more than 20 µM.

For the compound `Cc1nc(-c2ccc(Cl)cc2)oc1COC(C)(C)C(=O)O` [Romazarit], the CC50 at 24 h is more than 50 µM.

Compound `C/C=C1\NC(=O)[C@H]2CSSCC/C=C/[C@H](CC(=O)N[C@H](C(C)C)C(=O)N2)OC(=O)[C@H](C(C)C)NC1=O` [Romidepsin] came in with a CC50 at 24 h of 0.0269 µM.

`Cn1c([N+](=O)[O-])cnc1COC(N)=O` [Ronidazole] displayed a CC50 at 24 h of more than 50 µM.

On to `CCCN(CCC)CCc1cccc2c1CC(=O)N2` [Ropinirole], for which the CC50 at 24 h is more than 50 µM.

Take `CCCN1CCCC[C@H]1C(=O)Nc1c(C)cccc1C` [Ropivacaine hydrochloride]: the CC50 at 24 h was more than 50 µM.

For `CN(C(=O)c1c(O)c2ccccc2n(C)c1=O)c1ccccc1` [Roquinimex], the cytotoxic concentration (CC50) at 24 h was more than 50 µM.

Compound `O=C(O)c1c(Cl)c(Cl)c(Cl)c(Cl)c1-c1c2cc(I)c(=O)c(I)c-2oc2c(I)c(O)c(I)cc12` [Rose bengal sodium] gave a CC50 at 24 h of 20.9 µM.

`CN(CCOc1ccc(CC2SC(=O)NC2=O)cc1)c1ccccn1` (centres unmarked) [Rosiglitazone maleate] had a CC50 at 24 h of more than 90 µM.

In turn, `CC(C)c1nc(N(C)S(C)(=O)=O)nc(-c2ccc(F)cc2)c1/C=C/[C@@H](O)C[C@@H](O)CC(=O)O` [Rosuvastatin calcium] had a CC50 at 24 h of more than 50 µM.

In the case of `CCCN(CCc1cccs1)[C@H]1CCc2c(O)cccc2C1` [Rotigotine], it took 40.9 µM to reach half-maximal cytotoxicity (CC50 at 24 h).

The compound `CC(=O)OCC(=O)NCCCOc1cccc(CN2CCCCC2)c1` [Roxatidine acetate hydrochloride] yielded a 50% cytotoxic concentration (CC50) at 24 h of more than 50 µM.

As to `Oc1ccc2[nH]cc(CCCCN3CC=C(c4ccccc4)CC3)c2c1` [Roxindole], the CC50 at 24 h is 7.71 µM. That is a single-digit micromolar value.

Turning to `CC[C@@]1(O)C(=O)OCc2c1cc1n(c2=O)Cc2cc3c([N+](=O)[O-])cccc3nc2-1` [Rubitecan], half-maximal cytotoxicity (CC50 at 24 h) was put at 1.34 µM.

For the compound `NC(=O)c1cn(Cc2c(F)cccc2F)nn1` [Rufinamide], the CC50 at 24 h was more than 50 µM.

In turn, `CN1CCN(c2c(F)cc3c(=O)c(C(=O)O)cn4c3c2SCC4)CC1` [Rufloxacin hydrochloride] showed a CC50 at 24 h of more than 50 µM.

Consider `C[C@@H]1O[C@@H](OC[C@H]2O[C@@H](Oc3c(-c4ccc(O)c(O)c4)oc4cc(O)cc(O)c4c3=O)[C@H](O)[C@@H](O)[C@@H]2O)[C@H](O)[C@H](O)[C@H]1O` [Rutin], for which the CC50 at 24 h was found to be 57.3 µM.

In turn, `COc1cc(C[C@H](C)N)c(OC)cc1Br` [S-(+)-2,5-Dimethoxy-4-bromoamphetamine hydrochloride] displayed a CC50 at 24 h of 61.8 µM.

For the compound `CN[C@@H](C)Cc1ccccc1` [S-(+)-Methamphetamine hydrochloride], the CC50 at 24 h is more than 90 µM.

In turn, `C=CCC1([C@@H](C)CCC)C(=O)NC(=O)NC1=O` [S-(-)-Secobarbital] registered a CC50 at 24 h of more than 90 µM.

Consider `CCCSC(=O)Cl` [S-(Propyl) chlorothioformate], for which the CC50 at 24 h is more than 90 µM.

The compound `C=CCC1=C(C)[C@@H](OC(=O)[C@@H]2[C@@H](C=C(C)C)C2(C)C)CC1=O` [S-Bioallethrin] showed a CC50 at 24 h of 32.6 µM. This lies in the double-digit micromolar range.

As to `CC(=O)SCc1ccco1` [S-Furfuryl thioacetate], the 50% cytotoxic concentration (CC50) at 24 h was more than 90 µM.

`COC(C)(C)CCC[C@H](C)C/C=C/C(C)=C/C(=O)OC(C)C` [S-Methoprene]: the CC50 at 24 h came to 70.9 µM.

In turn, `CCc1cccc(C)c1N(C(=O)CCl)[C@@H](C)COC` [S-Metolachlor] came in with a CC50 at 24 h of more than 90 µM.

With `Cc1nc(-c2ccccn2)ncc1C(=O)Nn1cc(C)c2cc(F)ccc21` [SAR102608], the cytotoxic concentration (CC50) at 24 h was more than 90 µM.

As to `CC(=O)NC1(c2cccc(F)c2)CCN(CC[C@@]2(c3ccc(Cl)c(Cl)c3)CN(c3ccccc3)C(=O)CO2)CC1` [SAR102779], half-maximal cytotoxicity (CC50 at 24 h) was put at 6.31 µM.

In turn, `O=C(Nc1ccc2[nH]ccc2c1)c1cc2cc(F)ccc2n1Cc1cccc(F)c1` [SAR115740] returned a CC50 at 24 h of 14.6 µM.

Consider `COCCOc1cc2cc(C(=O)NC3CCN(C(C)C)CC3)n(CC(=O)Nc3ccc(Cl)cn3)c2cn1` [SAR377142], for which the CC50 at 24 h was 71.7 µM.

`CCOC(=O)c1ccc(C2CCC(NC[C@H](O)COc3ccc(O)c(NS(C)(=O)=O)c3)CC2)cc1` (some centres unmarked) [SAR 150640] showed a CC50 at 24 h of 34.8 µM.

Consider `NC(=O)N(O)[C@@H]1COc2cc(OCc3ccccc3)ccc21` [SB202235], for which the CC50 at 24 h is more than 90 µM.

Regarding `CCN1CCC2(CC1)COc1cc3c(cc12)N(C(=O)c1ccc(-c2ccc(-c4nnc(C)o4)cc2C)cc1)CC3` [SB236057A], the CC50 at 24 h worked out at 3 µM. This counts as single-digit micromolar.

Regarding `Cc1cc2c(cc1C(F)(F)F)N(C(=O)Nc1ccc(Oc3cccnc3C)nc1)CC2` [SB243213A], it took 69.4 µM to reach half-maximal cytotoxicity (CC50 at 24 h).

The compound `OCC(CO)n1cnc(-c2ccc(F)cc2)c1-c1ccnc(Oc2ccccc2)n1` [SB281832] returned a CC50 at 24 h of more than 90 µM.

For `Cc1nc(-c2ccc3c(c2)CCN(CCC2CCC(NC(=O)/C=C/c4ccc(F)cc4)CC2)CC3)no1` (centres unmarked) [SB413217A], the CC50 at 24 h worked out at 8.41 µM.

Take `Cn1ccc2cc3c(cc21)CCN3C(=O)Nc1cccnc1` [SB 206553 hydrochloride]: the CC50 at 24 h is more than 50 µM.

The compound `CC1(C)CO[C@@H](CC(=O)O)CN1` [SCH 50911] returned a CC50 at 24 h of more than 50 µM.

Turning to `CC(C)OC(=O)c1cc2c(OCC(O)CNC(C)(C)C)cccc2[nH]1` (centres unmarked) [SDZ 21009], the half-maximal cytotoxic concentration (CC50) at 24 h amounted to 36.9 µM. In other words, the double-digit micromolar range.

The compound `C=CCN1C[C@H](C)N([C@H](c2ccc(C(=O)N(CC)CC)cc2)c2cccc(OC)c2)C[C@H]1C` [SNC 80] had a CC50 at 24 h of 28.8 µM.

For the compound `O=C1c2ccccc2-c2n[nH]c3cccc1c23` [SP600125], the CC50 at 24 h is more than 50 µM.

Staying with this series, now noted: rat, gh3-tre-luc cells, AC50 (uM) modified / 1000, Tox21_110001=Tox21_111832; viability, 1 nM T3 present, 24 h.
With `c1ccc(C2(N3CCCC3)CCCCC2)cc1` [Rolicyclidine], the CC50 at 24 h worked out at 14.9 µM.

(Values after paper PMC6792352, “Limited Chemical Structural Diversity Found to Modulate Thyroid Hormone Receptor in the Tox21 Chemical Library” (Environmental Health Perspectives, 2019).)
